From the NIST ThermoML archive (doi:10.1021/je700598v)

Experiment: cn = amount concentration of the nth substance listed, in mol/dm3
Details: 101 kPa, Liquid; for viscosity: Capillary tube (Ostwald / Ubbelohde) method; for mass density: Pycnometric method; for binary diffusion coefficient: Taylor dispersion method

OC[C@H]1O[C@@H]2O[C@H]3[C@H](O)[C@@H](O)[C@@H](O[C@H]4[C@H](O)[C@@H](O)[C@@H](O[C@H]5[C@H](O)[C@@H](O)[C@@H](O[C@H]6[C@H](O)[C@@H](O)[C@@H](O[C@H]7[C@H](O)[C@@H](O)[C@@H](O[C@H]8[C@H](O)[C@@H](O)[C@@H](O[C@H]9[C@H](O)[C@@H](O)[C@@H](O[C@H]1[C@H](O)[C@H]2O)O[C@@H]9CO)O[C@@H]8CO)O[C@@H]7CO)O[C@@H]6CO)O[C@@H]5CO)O[C@@H]4CO)O[C@@H]3CO [γ-cyclodextrin] + O
Details	binary diffusion coefficient, 298.15 K [m2/s]	binary diffusion coefficient, 310.15 K [m2/s]	mass density, 298.15 K [kg/m3]	mass density, 310.15 K [kg/m3]	viscosity, 298.15 K [mPa·s]	viscosity, 310.15 K [mPa·s]
c1 = 0.00186	–	–	896.2	697	0.9975	0.9938
c1 = 0.002	3.57e-10	4.8e-10	–	–	–	–
c1 = 0.004979	–	–	906.1	708.2	0.999	0.9949
c1 = 0.005	3.55e-10	4.7e-10	–	–	–	–
c1 = 0.007923	–	–	919.2	717.2	1.001	0.997
c1 = 0.008	3.53e-10	4.61e-10	–	–	–	–
c1 = 0.009981	–	–	927	723.4	1.002	0.9984
c1 = 0.01	3.52e-10	4.53e-10	–	–	–	–
